Data on 78 molecules can be found in the METLIN SMRT retention time set (Domingo-Almenara et al. 2019).

Molecules are shown by their SMILES.

The series in a line: gradient 5% acetonitrile 3 min, to 50% in 2 min, to 85% in 15 min, held 3 min, 100 µL/min. As to conditions: column: Zorbax Extend-C18 2.1 x 50 mm; eluents: water / acetonitrile, 0.1% formic acid. The method in brief:
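Over 3 months, pure standards in mixtures of ~100 molecules were run by HPLC coupled to a quadrupole time-of-flight mass spectrometer in positive and negative ionization mode. The column was a Zorbax Extend-C18 (2.1 × 50 mm, 1.8 μm) at 100 μL/min, eluted with water and acetonitrile each holding 0.1% formic acid, with 40 μL dead and 900 μL dwell volumes. Retention time was determined from adduct peaks chosen by software and checked manually.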
Regarding `O=C(N1CCC(Cc2ccc(COc3cccnc3)cc2)CC1)C1(c2ccccc2)CC1`, the RP-LC retention time stood at 891 s.

Molecule `Cc1[nH]nc(-c2c(C)sc(C)c2S(=O)(=O)Nc2cccc(Cl)c2)c1C` had an RP-LC retention time of 1100 s.

`Cc1ccc(NC(=O)N2CCC(N3CCN(Cc4ccccc4)C(=O)C3=O)CC2)cc1C` returned an RP-LC retention time of 780 s.

`CCc1nc2cc(-c3noc(-c4ccc(OC)nc4)n3)ccc2o1` gave an RP-LC retention time of 1180 s.

As for `CCCn1c(=O)c(C)nc2cc(-c3noc(-c4ccsc4)n3)ccc21`, the RP-LC retention time worked out at 1080 s.

`Cc1ccc(CNc2ccc(-c3nc(-c4ccc(F)cc4)no3)cn2)o1`: the RP-LC retention time came to 1190 s.

The molecule `Cc1cccc(NC(=O)C(=O)NCCN2CCN(c3ccc(F)cc3)CC2)c1C` registered an RP-LC retention time of 584 s.

Molecule `Cc1cc(N2CCN(C(=O)C(C)Oc3cccc(Cl)c3)CC2)nc2nncn12` (stereo not drawn) showed an RP-LC retention time of 644 s.

`COc1cccc(-c2cc3c(=O)n(Cc4nc(-c5cccc(Br)c5)no4)ccn3n2)c1` had an RP-LC retention time of 1080 s.

As for `CCOC(=O)c1ccc(Oc2ncnc(N)c2[N+](=O)[O-])cc1`, the RP-LC retention time worked out at 769 s.

For the molecule `CNC(=O)c1sc(-c2cccc(C)c2)nc1C`, the RP-LC retention time worked out at 797 s.

Take `O=C(NCc1ccc(F)cc1)C1CCN(C(=O)C2Sc3ccccc3NC2=O)CC1` (stereo not drawn): the RP-LC retention time came out at 804 s.

As to `C=Cc1ccc(Cn2nc3ccc(S(=O)(=O)N4CCOCC4)cn3c2=O)cc1`, the RP-LC retention time amounted to 864 s.

On to `CCCN1C(=O)Cc2cc(C(=O)O)ccc21`, for which the RP-LC retention time is 643 s.

For `COC(=O)c1ncn2c1C(=O)N(c1ccc(F)cc1)C(C)(C(=O)NCc1ccccc1)C2` (stereo not drawn), the RP-LC retention time was determined as 691 s.

As to `CN(C)C(=O)CCc1ccc2c(c1)CN(C(=O)CC1CCCC1)CCO2`, the RP-LC retention time was 781 s.

On to `COCCc1noc(C2CN(S(=O)(=O)c3cccc(F)c3)C2)n1`, for which the RP-LC retention time turned out to be 784 s.

`O=C(CN1C(=O)CSc2ccc(C(=O)N3CCCC3)cc21)N1CCN(c2ncccn2)CC1` gave an RP-LC retention time of 661 s.

Turning to `CC1CCC(NC(=O)C2CCCN(C(=O)c3cc(-c4ccccn4)n[nH]3)C2)CC1` (stereo not drawn), the RP-LC retention time is 636 s.

`COc1ccc(N2CCN(c3cc(SCC(=O)Nc4ccc(F)cc4)ncn3)CC2)cc1` gave an RP-LC retention time of 1100 s.

Molecule `O=C(Cc1cccs1)Nc1ccc(Nc2ccc(-n3cccn3)nn2)cc1` gave an RP-LC retention time of 708 s.

In turn, `Cc1cnn(Cc2nc(-c3ccc(NC(=O)C4CCCC4)cc3)oc2C)c1` showed an RP-LC retention time of 905 s.

In turn, `CC(C)c1cccc(NC(=O)C2CCN(C(=O)c3ncn4c3COC(c3ccc(F)cc3)C4)CC2)c1` (stereo not drawn) returned an RP-LC retention time of 931 s.

In turn, `CCc1noc(NC(C)=O)c1-c1ccc(OC)c(S(=O)(=O)N2CCCC2)c1` came in with an RP-LC retention time of 710 s.

Consider `CCOC(=O)c1nc(NCc2ccc(CC)cc2)c2ccccc2n1`, for which the RP-LC retention time came out at 869 s.

`Cc1ccc(CNC(=O)C2(C)CN(S(C)(=O)=O)CC(=O)N2Cc2cccc(C)c2)cc1` (stereo not drawn) registered an RP-LC retention time of 868 s.

The molecule `COc1ccc(N2CC(c3noc(-c4ccc(OC)cc4OC)n3)CC2=O)cc1` (stereo not drawn) registered an RP-LC retention time of 861 s.

For the molecule `COc1ccc(-c2nnc(Cc3nc(-c4ccccc4Cl)no3)o2)cc1`, the RP-LC retention time worked out at 973 s.

The molecule `Cn1cc(CCN2CCN(S(=O)(=O)c3cccc(C#N)c3)CC2)c2cccnc21` came in with an RP-LC retention time of 608 s.

For `Cc1ccc(NC(=O)N2CCC(n3cnc4cc(F)ccc4c3=O)CC2)cc1F`, the RP-LC retention time stood at 832 s.

For the molecule `Cc1ccc(-c2noc(-c3nn(CC(=O)N4CCCC4)c4ccccc34)n2)cc1`, the RP-LC retention time came to 1080 s.

In turn, `COc1cccc2c(NC(=O)c3ccccc3F)cc(C)nc12` showed an RP-LC retention time of 579 s.

In the case of `Cc1ccc(C)c(-c2cc3c(=O)n(Cc4nc(-c5ccccc5Cl)no4)ncn3n2)c1`, the RP-LC retention time turned out to be 1220 s.

`Cc1cccc(C)c1NC(=O)CSC1=Nc2ccccc2N=C(c2ccccc2)C1` gave an RP-LC retention time of 1100 s.

For the molecule `CCOCCOC(=O)C1=C(C)NC2=C(C(=O)CC(C)(C)C2)C1c1cccc(OC)c1OC` (stereo not drawn), the RP-LC retention time is 791 s.

`Cc1noc(CC2CCOC3(CCN(C(=O)C4(c5ccccc5)CC4)CC3)C2)n1` (stereo not drawn) registered an RP-LC retention time of 820 s.

In turn, `FC(F)(F)c1cccc(-c2ccc(CNCC3CCCO3)o2)c1` (stereo not drawn) registered an RP-LC retention time of 703 s.

Turning to `CCOC(=O)c1c(S(=O)(=O)N2CCC(C(=O)NCCC3=CCCCC3)CC2)c(C)n(C)c1C`, the RP-LC retention time amounted to 896 s.

In turn, `CC(C)Cn1cc(S(=O)(=O)N2CCN(c3ccccc3Cl)CC2)c2cccnc21` gave an RP-LC retention time of 1220 s.

For `Cc1noc(-c2ccc(OC3CN(C(=O)NC4CCCCC4)C3)cc2)n1`, the RP-LC retention time came to 846 s.

In turn, `CC(NC(=O)c1ccc(C#N)cc1)C(=O)N1CCCc2ccccc21` (stereo not drawn) returned an RP-LC retention time of 818 s.

`Cc1cc(NC(=O)Cn2c(=O)cc(-c3nc(C(C)C)no3)c3ccccc32)ccc1F`: the RP-LC retention time came out at 959 s.

The molecule `C=CCn1nnc(NCc2ccc(-c3ccc(Br)cc3Br)o2)n1` showed an RP-LC retention time of 1200 s.

Regarding `Cn1c([N+](=O)[O-])cnc1N1CCN(c2nncs2)C1=O`, the RP-LC retention time turned out to be 689 s.

For the molecule `CCC(=O)c1ccc2c(c1)N(CCCN(C)C)c1ccccc1S2`, the RP-LC retention time turned out to be 772 s.

Consider `CCOc1ccc(NC(=O)N2CCN(c3cc(C)nc(Nc4ccc(C)cc4)n3)CC2)cc1`, for which the RP-LC retention time amounted to 727 s.

In turn, `CCC1CN2C=NC(N3CCN(C(=O)Cc4ccccc4)CC3)=CC2=N1` (stereo not drawn) returned an RP-LC retention time of 615 s.

For `CC(C(=O)NCc1ccco1)C1CCN(C(=O)c2cc3cc(Cl)ccc3[nH]2)CC1` (stereo not drawn), the RP-LC retention time is 841 s.

Take `CC(=O)Nc1ccc(Br)cc1`: the RP-LC retention time stood at 680 s.

Regarding `Cc1cc(C)cc(C(=O)N2c3ccccc3CC2c2nc(C3CC3)no2)c1` (stereo not drawn), the RP-LC retention time turned out to be 1130 s.

Take `CO[C@@H]1[C@@H](OC(N)=O)[C@H](O)[C@H](Oc2ccc3c(O)c(NC(=O)c4ccc(O)c(CC=C(C)C)c4)c(=O)oc3c2C)OC1(C)C`: the RP-LC retention time stood at 979 s.

For `CCN1c2ccccc2C(=O)NC12CCN(C(=O)Cc1ccccc1C)CC2`, the RP-LC retention time stood at 849 s.

`CCNc1cc(N2CCC(CCC(=O)N3CCN(C(C)C)CC3)CC2)ncn1`: the RP-LC retention time worked out at 524 s.

Molecule `CCn1c(=O)c(C(=O)N2CCN(c3ccccn3)CC2)nc2ccccc21` returned an RP-LC retention time of 588 s.

`CC(=O)c1ccc(NC(=O)N2C[C@@H]3C[C@H]2C[C@@H]3NC(=O)c2ccccc2)cc1` yielded an RP-LC retention time of 681 s.

In turn, `Cc1ccc(C)c(-c2cc3c(=O)n(Cc4nc(-c5ccc(Br)cc5)no4)ncn3n2)c1` showed an RP-LC retention time of 1320 s.

As to `COc1ccc(OC)c(CNC(=O)C2CCCN(c3ncnc4c3oc3ccccc34)C2)c1` (stereo not drawn), the RP-LC retention time came out at 761 s.

As to `CCN1CCN(C(=O)c2sc(-c3cn(C(C)C)c4ncccc34)nc2C)CC1`, the RP-LC retention time was found to be 612 s.

In turn, `CCOC(=O)c1c(C)oc2nc(C)nc(NCC3CCN(Cc4ccccc4F)CC3)c12` displayed an RP-LC retention time of 702 s.

On to `Cc1ccc(S(=O)(=O)N2CCC(OCc3noc(C4CCCO4)n3)CC2)cc1F` (stereo not drawn), for which the RP-LC retention time came to 936 s.

In turn, `Cc1cccc(C)c1NC(=O)C1CCCN(c2nc3c(s2)c(C)nn3-c2cccc(F)c2)C1` (stereo not drawn) displayed an RP-LC retention time of 1230 s.

`Cc1cc(C(=O)NCCN2CCCCCC2)c2c(=O)n(C)c(=O)n(C)c2n1` showed an RP-LC retention time of 592 s.

In turn, `Cn1nc(C(=O)N2CCCC2)c2c1CCN(C(=O)CCC(=O)NC1CCCCC1)C2` came in with an RP-LC retention time of 664 s.

`Cc1cc2c(cc1S(=O)(=O)NC(C)C)N(C(=O)C1CC1)CC2` had an RP-LC retention time of 808 s.

The molecule `CCOc1ccc(-c2noc(C3CC(=O)N(c4ccc(C)cc4)C3)n2)cc1` (stereo not drawn) showed an RP-LC retention time of 1080 s.

Take `Fc1ccc(Cn2cccc2-c2nc(-c3cccnc3)no2)cc1`: the RP-LC retention time worked out at 1100 s.

As to `O=C(Nc1ccc(Cl)cc1)C1CCN(S(=O)(=O)c2ccc3[nH]c(=O)sc3c2)CC1`, the RP-LC retention time is 854 s.

`Cc1cc(N2CCN(c3ccccn3)CC2)n2nc(-c3ccccc3)c(C)c2n1` registered an RP-LC retention time of 614 s.

For the molecule `Cn1cc(C(=O)N2CCCCCCNC(=O)[C@@H]3CCC[C@@H]32)cn1`, the RP-LC retention time is 622 s.

In the case of `C=Cc1ccc(Cn2c(C)c(CNCCc3ccco3)c(C(=O)O)c2C)cc1`, the RP-LC retention time was found to be 755 s.

For the molecule `CCn1nccc1-c1cccc(-c2noc(-c3ccc(F)cc3)n2)c1`, the RP-LC retention time was found to be 1240 s.

With `O=C(O)c1cccnc1SC1CC(=O)N(c2ccc(F)c(Cl)c2)C1=O` (stereo not drawn), the RP-LC retention time was 741 s.

Molecule `O=C(CN1C(=O)NC(c2ccc(Cl)cc2)C2=C1COC2=O)NCc1ccccc1Cl` (stereo not drawn) registered an RP-LC retention time of 811 s.

With `CCOc1ccc(NC(=O)N2CCC3(C2)C(=O)Nc2ccc(OC)cc23)cc1` (stereo not drawn), the RP-LC retention time amounted to 731 s.

The molecule `CS(=O)(=O)N1CCN(C(=O)c2ccsc2)CC1` returned an RP-LC retention time of 606 s.

Molecule `CCn1cc(S(=O)(=O)N2CC(Cn3c(C)cnc3-c3ccncc3)C2)cn1` came in with an RP-LC retention time of 574 s.

For the molecule `N#Cc1ccc(S(=O)(=O)N2CCC(C(=O)NCC(=O)N3CCCc4ccccc43)CC2)cc1`, the RP-LC retention time was 832 s.

With `Cc1ccccc1NC(=O)C1(C)Oc2cccnc2NC1=O` (stereo not drawn), the RP-LC retention time was found to be 673 s.
